Laboratory results reported in patent US20120003186A1, “METHOD FOR DEDIFFERENTIATING ADIPOSE TISSUE STROMAL CELLS” (SNU R&DB FOUNDATION, priority 2010, published 2012).

Legend:
Assay type in all cases: cell-based, human
dedifferentiated ATSC [1] = assay: Real time PCR of stemness and proliferation genes with inhibitor treatment; details: FIG. 9b; for expression of Oct-4 / expression of REX1, SOX2, CDk1 and CDk2: dedifferentiated ATSC treated with inhibitor
Protocol: The expression of Rex1, CDk1 and Runx3 genes were observed by real time PCR in the same manner of the Examples 2 and 3 in cells of control group not treated with AG490 and cells of experimental group not treated with AG490 or treated with 20 μM or 30 μM. As for a quantitative control group, the expression of GAPDH (glyceraldehyde-3-phosphate dehydrogenase) was also observed.
Expressions of REX1, Oct-4, SOX2, CDk1 and CDk2 were observed by real time PCR in the same manner of Examples 2 and 3 in each of the following cases. ATSC were treated with hypoxia/DPH-derivative for 6 hours and then divided into cases including: i) sample treated with nothing; ii) sample treated with SB203580 only; iii) sample treated with PD98059 only; and iv) sample treated with SB203580 and PD98059. As for a quantitative control group, the expression of GAPDH was also confirmed. The result is illustrated in FIG. 9b.

dedifferentiated ATSC [2] = assay: Colony formation with inhibitor treatment; details: dedifferentiated ATSC vs non-treated experimental group; similar to control group; FIG. 10
Protocol: The inventors conducted following experiment to confirm the actual growth of ATSC treated with hypoxia/DHP-derivative by the activity of Rex-1 and growth-related signal protein which was confirmed at Example 7-1. To be specific, cells of control group and cells of experimental group treated with HPD98059, SB203580 or AG490, or not treated were prepared, and measured for colony formation. The result is illustrated in FIG. 10.

dedifferentiated ATSC [3] = assay: Western blotting of growth-related signal proteins with inhibitor treatment; details: FIG. 9a
From the text: The inventors conducted following experiment to confirm the expression pattern of growth-related signal protein and Rex-1 in ATSC treated with hypoxia/DHP-derivative. To be specific, the expression of P-Jak2 (Phosphorylated-Janus kinase 2) and P-Stat3 (Phosphorylated-signal transducer and activator of transcription3) was observed by Western blotting using anti-P-Jak2 antibody and anti-P-Stat3 antibody in the same manner explained above in Examples 2 and 3 in cells of control group not treated with AG490 (Jak2 inhibitor, Sigma) and in cells of experimental group not treated with AG490 or treated with 20 μM or 30 μM. The expression of p-STAT3 and STAT3 was observed by Western blotting using anti-p-STAT3 antibody and anti-Stat3 antibody in the same manner of the Examples 2 and 3 in a control group not treated with AG490 and experimental group treated with hypoxia/DHP-derivative for 6 hours and then treated or not treated with AG490. The expression of p-MEK (Phosphorylated-Mitogen-activated Protein/ERK Kinase), MEK, p-ERK (Phosphorylated-Extracellular signal-regulated kinases), ERK, C-myc, p-STAT3 and STAT3 proteins was observed by Western blotting in the same manner of the Examples 2 and 3 in control group not treated with PD98059 (MEX inhibitor, Sigma) and experimental group treated with hypoxia/DHP-derivative for 6 hours and then treated or not treated with PD98059. The expression of p-P38, P38, P53 and P21 protein was observed by Western blotting in the same manner of Examples 2 and 3 in control group not treated with SB203580 (P38MAPK inhibitor, Sigma) and experimental group treated with hypoxia/DHP-derivative for 6 hours and then treated or not treated with SB203580. The antibodies to each protein were purchased from Santa Cruz. The result is illustrated in FIG. 9a.

dedifferentiated ATSC [4] = assay: Cell migration with signal transmission inhibitors; details: dedifferentiated ATSC treated with inhibitor; FIG. 15
Protocol: In the developmental procedures, cell migration is considered to be critical for normal development. Accordingly, the inventors conducted experiment as explained below to confirm the in vitro migration activity of dedifferentiated ATSC. First, experimental group was cultured in a culture medium containing control cell group and DHP-derivative under hypoxia condition for 30 minutes or 6 hours and then cultured in low serum growth medium. The cultured cells were moved onto 6-transwell plate (8 μm pore size; Costar, U.S.A) coated with laminin (Chemicon, U.S.A). The respective cells were divided on an upper layer chamber, and cultured under 37° C., 5% carbon dioxide condition for 48 hours, during which the cells were left to migrate from the upper layer chamber to the lower layer chamber. The remaining, non-migrated cells were removed from the surface of the upper layer chamber and the migrated cells in the lower layer chamber were stained with Harris hematoxylin (Sigma Aldrich, U.S.A). Cells were counted from 20-selected areas for the respective cells.
The inventors conducted experiment to confirm the signal pathway that influences the in vitro migration of ATSC which were treated with hypoxia/DHP-derivative.

[5] = vs sample not treated with inhibitor

Row | SMILES | expression of Rex′1, CDK1, CDK2, Nanog and Runx3 (dedifferentiated ATSC [1]; dedifferentiated ATSC, higher concentration of AG490) | cell proliferation (colony formation) (dedifferentiated ATSC [2]) | expression of P-Jak2 and P-Stat3 (dedifferentiated ATSC [3]; higher concentration of AG490 (20 μM or 30 μM)) | expression of Oct-4 (dedifferentiated ATSC [1]) | expression of REX1, SOX2, CDk1 and CDk2 (dedifferentiated ATSC [1]) | cell migration (dedifferentiated ATSC [4]) | expression of C-myc (dedifferentiated ATSC [3]; [5]) | phosphorylation of MEK (dedifferentiated ATSC [3]; [5]) | expression of P53 and P21 (dedifferentiated ATSC [3]; [5]) | phosphorylation of P38 (dedifferentiated ATSC [3]; [5])
1 | N#C/C(=C/c1ccc(O)c(O)c1)C(=O)NCc1ccccc1 [AG490] | decreased expression | decreased cell proliferation | decreased expression |  |  |  |  |  |  | 
2 | COc1cccc(-c2cc(=O)c3ccccc3o2)c1N [PD98059] |  | decreased cell proliferation |  | not changed | decreased | noticeably decreased | decreased expression | increased phosphorylation |  | 
3 | C[S+]([O-])c1ccc(-c2nc(-c3ccncc3)c(-c3ccc(F)cc3)[nH]2)cc1 (stereo not drawn) [SB203580] |  | decreased cell proliferation |  | not changed | decreased | noticeably decreased |  |  | increased expression | decreased phosphorylation
